From paper PMC12395000 (RSC Advances, 2025) come the findings set out here.

The test system of assay [1] is HCT-116 cancer cells. The assay can be described thus: MTT cytotoxicity assay, HCT-116. It is filed as cell-based. Particulars: Homo sapiens, HCT-116, 48 h, read-out: IC50 ± SD. For orientation: Tetrazolium assays rely on reduction of a dye to a coloured formazan, in cell work by metabolically active cells.
Assay [2] has as its system WI-38 cells. Nature of the assay: MTT cytotoxicity assay, normal WI-38. It is filed as cell-based. Particulars: Homo sapiens, WI-38, 48 h, read-out: IC50 ± SD.
Assay [3] deals with EGFR (Homo sapiens, UniProt P00533). Nature of the assay: EGFR kinase inhibitory assay. Type of assay: biochemical. Particulars: for IC50: EGFR IC50 ± SD.
Assay [4] concerns HCT-116 cells. Nature of the assay: Annexin V/PI staining flow cytometry. It is filed as cell-based. On the technique in general: In flow cytometry, cells or beads pass a laser one at a time.
The subject of assay [5] is HCT-116 cells. Nature of the assay: DNA-content cell cycle analysis by flow cytometry. Type of assay: cell-based. Particulars: HCT-116, IC50 = 1.34 μM, 48 h; control 54.19%.
Assay [6] has as its system P53, Bax, caspase-3, caspase-8, caspase-9, Bcl-2 genes in HCT-116 cells. The assay can be described thus: RT-PCR gene expression of apoptosis-related genes. It is filed as cell-based. Particulars: HCT-116, IC50 = 1.34 μM, 48 h.
[7] abbreviates: three replicates, concentrations 0.001-10 μM.

By IC50 is commonly meant the concentration needed to halve the response being measured.

EGFR, sequence (P00533 25-1210): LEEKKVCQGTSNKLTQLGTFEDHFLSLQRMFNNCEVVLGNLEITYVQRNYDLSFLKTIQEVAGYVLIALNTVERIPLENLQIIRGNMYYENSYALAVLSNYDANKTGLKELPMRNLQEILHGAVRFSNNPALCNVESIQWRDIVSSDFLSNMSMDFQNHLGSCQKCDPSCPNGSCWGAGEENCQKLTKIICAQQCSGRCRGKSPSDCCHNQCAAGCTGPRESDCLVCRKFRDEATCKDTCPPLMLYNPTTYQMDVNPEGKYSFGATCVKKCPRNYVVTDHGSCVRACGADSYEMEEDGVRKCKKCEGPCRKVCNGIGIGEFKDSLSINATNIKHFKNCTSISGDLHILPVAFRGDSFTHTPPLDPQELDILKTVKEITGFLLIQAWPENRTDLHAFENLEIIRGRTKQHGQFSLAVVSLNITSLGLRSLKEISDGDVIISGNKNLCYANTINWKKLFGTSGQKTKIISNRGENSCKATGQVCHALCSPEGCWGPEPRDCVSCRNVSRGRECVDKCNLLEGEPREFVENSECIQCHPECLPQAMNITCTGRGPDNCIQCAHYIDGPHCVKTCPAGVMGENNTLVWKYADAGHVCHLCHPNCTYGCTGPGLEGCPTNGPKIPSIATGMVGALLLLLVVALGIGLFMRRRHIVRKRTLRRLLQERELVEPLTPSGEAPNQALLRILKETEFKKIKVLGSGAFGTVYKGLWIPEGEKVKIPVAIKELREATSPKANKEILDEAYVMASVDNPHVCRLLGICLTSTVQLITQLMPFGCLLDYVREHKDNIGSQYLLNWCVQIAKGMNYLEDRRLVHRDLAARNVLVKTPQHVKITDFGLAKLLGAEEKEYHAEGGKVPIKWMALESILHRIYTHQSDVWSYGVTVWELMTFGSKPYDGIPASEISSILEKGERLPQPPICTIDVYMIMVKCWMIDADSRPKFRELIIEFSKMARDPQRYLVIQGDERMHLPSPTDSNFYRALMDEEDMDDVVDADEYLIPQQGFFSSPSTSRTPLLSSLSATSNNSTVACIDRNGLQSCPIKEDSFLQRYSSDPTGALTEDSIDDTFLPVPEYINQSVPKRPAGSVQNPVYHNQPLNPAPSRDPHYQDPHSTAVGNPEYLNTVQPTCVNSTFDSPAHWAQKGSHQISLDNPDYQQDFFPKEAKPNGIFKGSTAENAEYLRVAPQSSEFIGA

Turning to `Cc1[nH]c(=O)nc2c1c(=O)oc1ccc3ccccc3c12` [Compound 16, 4-Methyl-2H-benzo[5,6]chromeno[4,3-d]pyrimidine-2,5(3H)-dione], the 50% inhibitory concentration (IC50) in assay [1] is 6460 nM; in assay [2], not below 50000 nM. In addition, the “EGFR IC50 ± SD” value in assay [3] (setting [7]) is given as “non-detected”.
In the case of `CC1=C(C(=O)Nc2ccccn2)C(c2ccc3ccc4cccc5ccc2c3c45)NC(=S)N1` (stereo not drawn) [Compound 4b, 6-Methyl-4-(pyren-1-yl)-N-(pyridin-2-yl)-2-thioxo-1,2,3,4-tetrahydropyrimidine-5-carboxamide], in assay [1], the IC50 was determined as 1340 ± 400 nM. Further, the IC50 in assay [2] is not below 50000 nM. Moreover, the half-maximal inhibitory concentration (IC50) in assay [3] (setting [7]) was 77 ± 4.36 nM. For the same compound, in assay [4] (HCT-116), the “apoptosis induction versus control” value is reported as 30.2 fold. Besides, the necrosis in assay [4] (HCT-116, IC50 = 1.34 μM, 48 h, Q1, control 2.13%) stood at 5.58%. In assay [4] (HCT-116, IC50 = 1.34 μM, 48 h, Q2), the late apoptosis was 7.36%. The same compound yielded an early apoptosis in assay [4] (HCT-116, IC50 = 1.34 μM, 48 h, Q4) of 19.24%. For the same compound, the “cells that died by apoptosis (total)” value in assay [4] (HCT-116, treated at IC50 = 1.34 μM, 48 h, control 0.88%) is listed as 26.60%. Also, the “cell population at G1-phase (%DIP G1)” value in assay [5] was found to be 87.55%. In assay [6], the “Bax gene expression fold change” value amounted to 3.54 fold change, the “P53 gene expression fold change” value is recorded as 6.85 fold change, the “caspase-3 gene expression fold change” value was determined as 8.37 fold change and the “caspase-8 gene expression fold change” value came to 2.3 fold change. Also, in assay [6], the “caspase-9 gene expression fold change” value is listed as 6.80 fold change. Besides, the “Bcl-2 gene expression fold change” value in assay [6] (antiapoptotic gene, decreased) is on record as 0.37 fold change.
Regarding `CC1=C(C(=O)Nc2cccnc2)C(c2ccc3ccc4cccc5ccc2c3c45)NC(=S)N1` (stereo not drawn) [Compound 4c, 6-Methyl-4-(pyren-1-yl)-N-(pyridin-3-yl)-2-thioxo-1,2,3,4-tetrahydropyrimidine-5-carboxamide], the half-maximal inhibitory concentration (IC50) was 1900 ± 300 nM in assay [1], not below 50000 nM in assay [2] and 94.9 ± 4.95 nM in assay [3] (setting [7]).
As for `CC1=C(C(=O)Nc2ccccc2)C(c2ccc3ccc4cccc5ccc2c3c45)NC(=S)N1` (stereo not drawn) [Compound 4a, 6-Methyl-N-phenyl-4-(pyren-1-yl)-2-thioxo-1,2,3,4-tetrahydropyrimidine-5-carboxamide], the IC50 in assay [1] was 4800 nM; in assay [2] it was not below 50000 nM; in assay [3] (setting [7]) it was 104 ± 5.67 nM. Besides, in assay [3] (concentration not given), the EGFR inhibition percentage worked out at 82.3%.
As to `C#Cc1cccc(Nc2ncnc3cc(OCCOC)c(OCCOC)cc23)c1` [Erlotinib, reference compound], the IC50 is 1320 ± 200 nM in assay [1] and not below 50000 nM in assay [2].
